Results: patent US10106783B2, “HCV culture systems and direct-acting antiviral sensitivity” (Hvidovre Hospital, priority 2013, dated 2018)

Tests used:
[1] = test system: 4a(ED43) 5'UTR-NS5A recombinant virus; experiment: High-throughput DAA treatment assay of infected Huh7.5 cells, 4a(ED43)5-5A virus; type: cell-based, hepatitis C virus; details: for EC50 fold-difference relative to J6/JFH1, more sensitive: 4a(ED43)5-5A virus more sensitive than J6/JFH1; for EC50 fold-difference relative to J6/JFH1, more resistant: 4a(ED43)5-5A virus more resistant than J6/JFH1
Protocol: (§1) Huh7.5 cells in 96-well culture plates were infected with 5′UTR-NS5A specific genotype(isolate) recombinants. For details on the 5-5A virus stocks see FIG. 3. J6/JFH1 was a first-passage stock with no mutations in the ORF. Cultures were treated with seven protease inhibitors and the NS5A inhibitor daclatasvir. Values are means of triplicates in the experiment with ±SEM.
(§2) HCV DAAs were purchased from Acme Bioscience and dissolved in dimethyl sulfoxide (Sigma). High throughput treatment assays have been previously established. Concentration-response curves, EC50 values, and 95% confidence interval were calculated in GraphPad Prism 5 as described. Cytotoxicity assays to determine the non-cytotoxic dose range of the anti-HCV drugs were performed.
(§3) Since no mutations appeared in the NS3 protease region in first-passage 5-5A recombinants, these culture viruses could be ideal models for studying the efficacy of PIs in a genotype-specific manner. We thus generated virus stocks from first-passage 1a(H77 and TN) and second-passage 3a(S52), 4a(ED43), 5a(SA13), and 6a(HK6a) 5-5A viruses (FIG. 3) for PI treatment experiments. Additionally, we generated a first-passage stock of 2a J6/JFH1. We confirmed that virus stocks used for treatment were without NS3 protease mutations (FIGS. 5-9). We tested virus sensitivity to the most advanced PIs: telaprevir (VX-950), boceprevir (SCH503034), asunaprevir (BMS-650032), simeprevir (TMC435350), vaniprevir (MK-7009), faldaprevir (BI201335), and MK-5172. […] The median effective concentration (EC50) representing the efficacy of drugs against the treated viruses was calculated from the concentration-response curves (FIGS. 2, 4 and 10). For a given inhibitor, EC50 fold-differences relative to J6/JFH1 were calculated for each genotype recombinant and used to describe whether a recombinant was more sensitive (fold-difference <1) or resistant (fold-difference >1) than J6/JFH1.

[2] = test system: 1a(TN) 5'UTR-NS5A recombinant virus; experiment: High-throughput DAA treatment assay of infected Huh7.5 cells, 1a(TN)5-5A virus; type: cell-based, hepatitis C virus; details: for EC50 fold-difference from J6/JFH1: 1a(TN)5-5A virus, difference in sensitivity compared to J6/JFH1; for EC50 fold-difference relative to J6/JFH1, more sensitive: 1a(TN)5-5A virus more sensitive than J6/JFH1
Protocol: as §1, §2, §3

[3] = test system: HCV genotype 1-6 recombinant viruses; experiment: High-throughput DAA treatment assay of infected Huh7.5 cells, whole panel of genotype 1-6 recombinant viruses; type: cell-based, hepatitis C virus; details: for Inhibition of genotype 1-6 recombinant viruses: infected Huh7.5 cells, concentration-response
Protocol: as §1, §2, §3

[4] = test system: 5a(SA13) 5'UTR-NS5A recombinant virus; experiment: High-throughput DAA treatment assay of infected Huh7.5 cells, 5a(SA13)5-5A virus; type: cell-based, hepatitis C virus; details: for EC50 fold-difference from J6/JFH1: 5a(SA13)5-5A virus, difference in sensitivity compared to J6/JFH1; for EC50 fold-difference relative to J6/JFH1, more sensitive: 5a(SA13)5-5A virus more sensitive than J6/JFH1
Protocol: as §1, §2, §3

[5] = test system: 6a(HK6a) 5'UTR-NS5A recombinant virus; experiment: High-throughput DAA treatment assay of infected Huh7.5 cells, 6a(HK6a)5-5A virus; type: cell-based, hepatitis C virus; details: for EC50 fold-difference from J6/JFH1: 6a(HK6a)5-5A virus, difference in sensitivity compared to J6/JFH1; for EC50 fold-difference relative to J6/JFH1, more sensitive: 6a(HK6a)5-5A virus more sensitive than J6/JFH1
Protocol: as §1, §2, §3

[6] = test system: 1a(H77) 5'UTR-NS5A recombinant virus; experiment: High-throughput DAA treatment assay of infected Huh7.5 cells, 1a(H77)5-5A virus; type: cell-based, hepatitis C virus; details: for EC50 fold-difference from J6/JFH1: 1a(H77)5-5A virus, difference in sensitivity compared to J6/JFH1; for EC50 fold-difference relative to J6/JFH1, more sensitive: 1a(H77)5-5A virus more sensitive than J6/JFH1
Protocol: as §1, §2, §3

[7] = test system: 3a(S52) 5'UTR-NS5A recombinant virus; experiment: High-throughput DAA treatment assay of infected Huh7.5 cells, 3a(S52)5-5A virus; type: cell-based, hepatitis C virus; details: 3a(S52)5-5A virus more resistant (less sensitive) than J6/JFH1
Protocol: as §1, §2, §3

[8] = test system: J6/JFH1 (HCV genotype 2a recombinant); experiment: High-throughput DAA treatment assay of infected Huh7.5 cells, J6/JFH1 virus; type: cell-based; details: Hepatitis C virus, first-passage 2a J6/JFH1 stock, read-out: EC50 against J6/JFH1
Protocol: as §1, §2, §3

Row | Compound | EC50 fold-difference from J6/JFH1 ([1]; 4a(ED43)5-5A virus, difference in sensitivity compared to J6/JFH1) | EC50 fold-difference from J6/JFH1 [2] | Potency relative to the other tested DAAs ([3]; all genotype recombinant viruses) | Inhibition of genotype 1-6 recombinant viruses [3] | EC50 fold-difference from J6/JFH1 [4] | EC50 fold-difference from J6/JFH1 [5] | EC50 fold-difference from J6/JFH1 [6] | EC50 fold-difference relative to J6/JFH1, more resistant [7] [fold] | EC50 [8] [nM] | EC50 fold-difference relative to J6/JFH1, more sensitive [1] [fold] | EC50 fold-difference relative to J6/JFH1, more sensitive [2] | EC50 fold-difference relative to J6/JFH1, more sensitive [4] | EC50 fold-difference relative to J6/JFH1, more sensitive [5] | EC50 fold-difference relative to J6/JFH1, more sensitive [6] | EC50 fold-difference relative to J6/JFH1, more resistant [1] [fold]
1 | C=C[C@@H]1C[C@]1(NC(=O)[C@@H]1C[C@@H]2CN1C(=O)[C@H](C(C)(C)C)NC(=O)O[C@@H]1C[C@H]1CCCCCc1nc3ccc(OC)cc3nc1O2)C(=O)NS(=O)(=O)C1CC1 [MK-5172] | less than 2 fold | less than 2 fold | the most potent PI with broad activity against HCV genotypes 1-6 | concentration-dependently inhibited | less than 2 fold | less than 2 fold | less than 2 fold | ~13 |  |  |  |  |  |  | 
2 | C=C[C@@H]1C[C@]1(NC(=O)[C@@H]1C[C@@H](Oc2ncc(OC)c3ccc(Cl)cc23)CN1C(=O)[C@@H](NC(=O)OC(C)(C)C)C(C)(C)C)C(=O)NS(=O)(=O)C1CC1 [asunaprevir] |  |  |  | concentration-dependently inhibited |  |  |  | ~13 | 159 | ~5 | 2-3 fold | 2-3 fold | 2-3 fold | ~5 fold | 
3 | CC(C)(C)NC(=O)N[C@H](C(=O)N1C[C@H]2[C@@H]([C@H]1C(=O)NC(CC1CCC1)C(=O)C(N)=O)C2(C)C)C(C)(C)C (some centres unmarked) [boceprevir] |  |  |  |  |  |  |  | ~2 | 589 |  |  |  | ~4 fold |  | ~2
4 | COC(=O)N[C@H](C(=O)N1CCC[C@H]1c1nc(-c2ccc(-c3ccc(-c4c[nH]c([C@@H]5CCCN5C(=O)[C@@H](NC(=O)OC)C(C)C)n4)cc3)cc2)c[nH]1)C(C)C [daclatasvir] |  | < 3 fold |  |  | < 3 fold | < 3 fold | < 3 fold | ~6 |  | ~5 |  |  |  |  | 
5 | C=C[C@@H]1C[C@]1(NC(=O)[C@@H]1C[C@@H](Oc2cc(-c3csc(NC(=O)C(C)C)n3)nc3c(Br)c(OC)ccc23)CN1C(=O)[C@@H](NC(=O)OC1CCCC1)C(C)(C)C)C(=O)O [faldaprevir] |  |  |  | concentration-dependently inhibited |  |  |  | ~17 |  | ~44 | ~4 fold | ~10 fold | ~4 fold | ~12 fold | 
6 | COc1ccc2c(O[C@@H]3C[C@H]4C(=O)N[C@]5(C(=O)NS(=O)(=O)C6CC6)C[C@H]5/C=C\CCCCN(C)C(=O)[C@@H]4C3)cc(-c3nc(C(C)C)cs3)nc2c1C [simeprevir] |  | less than 2 fold |  | concentration-dependently inhibited | less than 2 fold | less than 2 fold |  | ~27 | 91 | ~10 |  |  |  | ~10 fold | 
7 | CCC[C@H](NC(=O)[C@@H]1[C@H]2CCC[C@H]2CN1C(=O)[C@@H](NC(=O)[C@@H](NC(=O)c1cnccn1)C1CCCCC1)C(C)(C)C)C(=O)C(=O)NC1CC1 [telaprevir] |  |  |  |  |  |  |  | ~4 | 493 |  |  |  | ~4 fold |  | ~4
8 | CC[C@@H]1C[C@]1(NC(=O)[C@@H]1C[C@@H]2CN1C(=O)[C@H](C(C)(C)C)NC(=O)OCC(C)(C)CCCCc1cccc3c1CN(C3)C(=O)O2)C(=O)NS(=O)(=O)C1CC1 [vaniprevir] |  |  |  | concentration-dependently inhibited |  |  |  | ~22 | 88 | ~10 | 3-6 fold | 3-6 fold | 3-6 fold | 3-6 fold | 
